Key:
[1] = tested on: Male Swiss mice; experiment: T-maze continuous alternation task (T-CAT) with oxybutynin and xanomeline; format: in vivo
From the text: Evaluation of Cognition with Oxybutynin and Xanomeline in the T-maze Alternation Task in Mice
The T-maze continuous alternation task (T-CAT) is useful as model for studying compounds with cognitive enhancing properties. The T-maze consists of 2 choice arms and 1 start arm mounted to a square center. Manual doors are provided to close specific arms during the force choice alternation task.
Mice were randomly assigned to one of the different experimental treatment groups. Each animal was identified by its group name, cage number, series (day) of experiment, and number (1 to 10) written with permanent ink on the tail.
The T-maze apparatus is made of gray Plexiglas with a main stem (55 cm long[…]10 cm wide[…]20 cm high) and two arms (30 cm long[…]10 cm wide[…]20 cm high) positioned at 90 degree angle relative to the main stem. A start box (15 cm long[…]10 cm wide) is separated from the main stem by a guillotine door. Horizontal doors are also provided to close specific arms during the force choice alternation task. […]
The percentage of alternation over the 14 free-choice trials was determined for each mouse and was used as an index of working memory performance. […]
Analysis of variance (ANOVA) was performed on the results. […] The drug-induced improvement of memory was calculated by setting the respective response of the saline/vehicle as 100% and that of the test group as 0% reversion. […]

[2] = tested on: Male Swiss mice; experiment: Antagonism of xanomeline-induced diarrhea in mice by oxybutynin (fecal pellet count); format: in vivo; conditions: oxybutynin i.p. 0.3 to 30 mg/kg, 30 minutes before xanomeline 30 mg/kg
Method: Male Swiss mice (4-6 weeks old), N=10 per treatment group were used.
Mice were placed individually in cages without any bedding materials. During the experiment the number of fecal pellets was counted at different time-points as outlined below:
T0: administration of oxybutinin.
T30 min: administration of vehicle or xanomeline.
T 30 min to T 2.5 h: counting of accumulated fecal pellets excreted.
T+2.5 h to T+4.5 h: counting of accumulated fecal pellets excreted.
The total number of fecal pellets for each mouse was counted over time. An analysis of variance (ANOVA) was performed on the results. Fisher's Protected Least Significant Difference was used for pairwise comparisons. The p value≤0.05 were considered significant. Grubbs' test (http//www at graphpad.com/quickcalcs/Grubbs1.cfm) was used to detect outliers for each parameter in each experimental group.

[3] = tested on: Male Swiss mice; experiment: Dose-response to xanomeline in a mouse model of diarrhea (fecal pellet count); format: in vivo; conditions: xanomeline i.p. 0.3 to 30 mg/kg
From the text: Study 1—Establishment of the Dose-Response to Xanomeline in a Mouse Model of Diarrhea.
Male Swiss mice (4-6 weeks old), N=10 per treatment group were used, and treated intra-peritoneally (i.p.) with either vehicle (vehicle group) or increasing doses of xanomeline, a representative muscarinic agonist. Mice were randomly assigned to one of two experimental groups (vehicle; or increasing doses of xanomeline). Each animal was identified by its group name, cage number, series (day) of experiment, and number (1 to 10) written with permanent ink on the tail.
Mice were placed individually in cages without any bedding materials. During the experiment the number of fecal pellets were counted at different time-points, starting one hour before the time of the administration of the test compound (T0), as outlined below:
T−1 h to T0: counting of the accumulated fecal pellets excreted.
T0: administration of the test compound.
T0 to T+2 h: counting of the accumulated fecal pellets excreted.
T+2 h to T+4 h: counting of the accumulated fecal pellets excreted.
The total number of fecal pellets for each mouse was counted over time. An analysis of variance (ANOVA) was performed on the results. Fisher's Protected Least Significant Difference was used for pairwise comparisons; p values≤0.05 were considered significant. […]

[4] = tested on: healthy volunteers and Alzheimer's patients; conditions: cited from earlier work
[5] = tested on: patients with Alzheimer disease; conditions: cited from earlier work

Row | SMILES | ability to perform the T-maze test after pretreatment ([1]; i.p. oxybutynin pretreatment 30 minutes before xanomeline) | antagonism of diarrhea induced by xanomeline [2] | ability to perform the T-maze test at the higher dose ([1]; i.p. xanomeline, higher dose (dose that caused diarrhea)) | diarrhea (number of fecal pellets) [3] | discontinuation rate ([4]; Alzheimer's patient population) | dose tolerated by some individuals ([4]; oral, taken with food) | maximal tolerated dose ([4]; orally administered) | maximal tolerated dose per day ([4]; orally administered) | cognitive and behavioral symptoms of Alzheimer disease ([5]; compared to placebo, 6 months) | side effects (bradycardia, gastro-intestinal distress, excessive salivation, sweating) ([5]; patients with Alzheimer disease)
1 | CCN(CC)CC#CCOC(=O)C(O)(c1ccccc1)C1CCCCC1 (stereo not shown) [oxybutynin, 4-diethylaminobut-2-ynyl 2-cyclohexyl-2-hydroxy-2-phenylethanoate] | restored the animals' ability to perform the T-maze test | dose-dependently antagonized the diarrhea induced by xanomeline |  |  |  |  |  |  |  | 
2 | CCCCCCOc1nsnc1C1=CCCN(C)C1 [xanomeline, 3-(4-hexyloxy-1,2,5-thiadiazol-3-yl)-1-methyl-5,6-dihydro-2H-pyridine] |  |  | too sick to perform the test | dose-dependently causes diarrhea | higher than 50% | 110 mg three times/day | 75 mg three times/day | 225 mg/day | significantly improve cognitive and behavioral symptoms of Alzheimer disease | dose-dependent unacceptable side effects

Reference: patent US10596139B2 (CHASE PHARMACEUTICALS CORPORATION, priority 2015, dated 2020)
